Assay results from patent publication US11738120B1, “Synthesis of taurolidine, purity profiles and polymorphs” (CorMedix Inc., priority 2022, dated 2023).
Like-named read-outs stand apart in the source and are kept apart here.

Legend:
[1] = cited from earlier work; for ΔpH @ −20° C.: pH shift during freezing
[2] = Solubility of taurolidine polymorphs in aqueous citric acid; format: physicochemical; conditions: in 26.1 mg/mL aqueous citric acid, at T=25° C.
Procedure: Taurolidine Polymorphs A and B synthesized according to the Present Synthesis may both be soluble in 26.1 mg/mL aqueous citric acid, at T=25° C.

[3] = Long term stability tests of taurolidine solution with citric acid and sodium citrate; format: physicochemical; conditions: citric acid and sodium citrate in combination; compared with taurolidine solution prepared with polyvinylpyrrolidone (PVP)
Description: The composition employed in the practice of the present invention preferably also contains a pharmacologically acceptable carrier solution, such as, water for injection.

[4] = cited from earlier work

SMILES | pH @ 25° C. [1] | ΔpH @ −20° C. [1] | further results
CC(=O)O [Acetic acid] | 5.6 | +0.5 | –
O=C(O)CC(O)(CC(=O)O)C(=O)O [Citric acid] | 6.2 | −0.2 | –
O=S1(=O)CCN(CN2CCS(=O)(=O)NC2)CN1 [Polymorph A, taurolidine] | – | – | solubility [2]: soluble
N[C@@H](Cc1c[nH]cn1)C(=O)O [Histidine] | 5.4 | +0.8 | –
O=S1(=O)CCN(CN2CCS(=O)(=O)NC2)CN1 [taurolidine] | – | – | stability and solubility of taurolidine in solution [3]: increases the stability and solubility
N[C@@H](CCC(=O)O)C(=O)O [Glutamic acid] | – | – | pKa ([4]; second pKa value): 4.1; pKa ([4]; third pKa value printed in the cell): 9.5
O=C(O)CC(O)C(=O)O (stereo not drawn) [Malic acid] | 5.0 | −0.3 | pKa ([4]; second pKa value): 3.4, 5.1
NC(CO)(CO)CO [Tromethamine] | 7.2 | +2.1 | –
